Assay results as given in publication PMC5640650, “NatD promotes lung cancer progression by preventing histone H4 serine phosphorylation to activate Slug expression” (Nature Communications, 2017).

What was measured:
Type in all cases: cell-based, human
[1] = test system: H1299 cells; experiment: Time-lapse cell-tracking, H1299 cells; details: HoloMonitor M4, vs Scr
From the text: (§1) Fig. 2 NatD is required for lung cancer cell migration and invasion in vitro. a Quantitative real-time PCR analysis of NatD mRNA levels normalized to GAPDH in scrambled control cells (Scr) and NatD-KD1 and NatD-KD2 cells. Results are shown as mean ± s.d. from three independent experiments. Two-tailed Student’s t-test was used. **P < 0.01 compared to Scr control. b Western blot analysis of NatD and Nt-ac-H4 protein levels in scrambled, NatD-KD1, and NatD-KD2 cells. GAPDH and histone H4 served as loading controls. Blots are representative of three independent experiments. c Representative images from wound healing assay of scrambled, NatD-KD1, and NatD-KD2 cells from three independent experiments (left panels). Wound healing assay results are quantified in the histogram (right panel). […] Cell migration and invasion are expressed as a percentage of control (bottom panel). […]
(§2) The in vitro viability of H1299 cells was assessed using the Cell Counting Kit-8 (CCK-8, Dojindo, Japan) according to the manufacturer’s protocol. Flow cytometric analysis of apoptosis was assessed by Annexin V and PI staining using the Annexin V-APC Apoptosis Detection Kit (KeyGEN BioTECH, China) according to the manufacturer’s guide. […] The samples were analyzed by flow cytometry (Becton Dickinson, NJ, USA), and results were analyzed with FlowJo software according to the manufacturer’s instructions. […]

[2] = test system: H1299 cells; experiment: Wound healing assay, H1299 cells; details: vs Scr
From the text: as §1, §2

[3] = test system: A549 cells; experiment: Transwell migration and invasion assay, A549 cells; details: vs Scr
Procedure: The in vitro viability of H1299 cells was assessed using the Cell Counting Kit-8 (CCK-8, Dojindo, Japan) according to the manufacturer’s protocol. Flow cytometric analysis of apoptosis was assessed by Annexin V and PI staining using the Annexin V-APC Apoptosis Detection Kit (KeyGEN BioTECH, China) according to the manufacturer’s guide. For cell cycle analysis, cells were harvested and fixed at 4 °C overnight with 70% ethanol. Cells were washed twice with PBS, and their DNA was stained using a Cell Cycle Detection Kit (KeyGEN BioTECH, China). The samples were analyzed by flow cytometry (Becton Dickinson, NJ, USA), and results were analyzed with FlowJo software according to the manufacturer’s instructions. For the wound healing assay, cells were plated to confluence in a 6-well plate, and the cell monolayer was scratched using a pipette tip. Representative photos were taken using a digital camera mounted on an inverted microscope (Olympus) at indicated times. Live cell imaging was performed using the HoloMonitor M4 time-lapse cytometer (Phase Holographic Imaging, Sweden). […]
of A549 cells. […] (bottom) Quantification of cell migration and invasion expressed as a percentage of Scr control; mean ± s.d. from three independent experiments; two-tailed Student’s t-test, **P<0.01 compared to Scr control. […]

[4] = test system: NatD; experiment: Quantitative real-time PCR / western blot of NatD knockdown; details: H1299 cells; for NatD mRNA, remaining relative to scrambled control: stable lentiviral shRNA, qPCR normalized to GAPDH, three independent experiments; for NatD protein level: western blot, vs Scr
From the text: Fig. 2 NatD is required for lung cancer cell migration and invasion in vitro. a Quantitative real-time PCR analysis of NatD mRNA levels normalized to GAPDH in scrambled control cells (Scr) and NatD-KD1 and NatD-KD2 cells. Results are shown as mean ± s.d. from three independent experiments. Two-tailed Student’s t-test was used. **P < 0.01 compared to Scr control. b Western blot analysis of NatD and Nt-ac-H4 protein levels in scrambled, NatD-KD1, and NatD-KD2 cells. GAPDH and histone H4 served as loading controls. Blots are representative of three independent experiments. c Representative images from wound healing assay of scrambled, NatD-KD1, and NatD-KD2 cells from three independent experiments (left panels). Wound healing assay results are quantified in the histogram (right panel). Results are shown as mean ± s.d. from three independent experiments. Two-tailed Student’s t-test was used. **P < 0.01 compared to Scr control. d Representative images of the migration of scrambled, NatD-KD1, and NatD-KD2 cells in a time-lapse cell tracker migration assay from three independent experiments. Representative images of the migration (e) and invasion (f) of scramble, NatD-KD1, and NatD-KD2 cells with transwell assay from three independent experiments (top panel). Cell counts for the corresponding assays of at least four random microscope fields (×100 magnification). Cell migration and invasion are expressed as a percentage of control (bottom panel). Results are shown as mean ± s.d. from three independent experiments. Two-tailed Student’s t-test was used. **P < 0.01 compared to Scr control
The small interfering RNA (siRNA) target sequences for RNA interference of NatD were inserted into the XhoI/HpaI sites in the pLL3.7 lentiviral vector according to the manufacturer’s recommendations (American Type Culture Collection, USA). The oligonucleotides were:
Total RNA from tissue samples and cultured cells was extracted using TRIzol reagent (Invitrogen). cDNAs were synthesized with a HiScript 1st Strand cDNA Synthesis Kit (Vazyme Biotech, China). Quantitative RT-PCR was performed using a FastStart Universal SYBR Green Master (Roche) according to the manufacturer’s instructions in a Rotor-Gene 6000 (Corbett Research) in a final volume of 20 μl. Cycling conditions were 94 °C for 15 s, 60 °C for 30 s, and 72 °C for 30 s. Each reaction was performed in triplicate. The primer sequences for RT-PCR are listed in Supplementary Table 2 and Table 3.

Substance: NatD-KD1: Human NatD shRNA KD1: 5′-GATGAAGAAGGTTATGTTA-3′, lentiviral (shRNA, lentiviral)
- random motility [1]: lower random motility
- migration in wound healing assay [2]: migrated significantly more slowly
- cell migration and invasion (transwell) [3]: inhibits cell migration and invasion
- NatD mRNA, remaining relative to scrambled control [4]: 30%
- NatD protein level [4]: decreased

Substance: NatD-KD2: Human NatD shRNA KD2: 5′-GGTTGAATGTCTCCATTGA-3′, lentiviral (shRNA lentiviral)
- random motility [1]: lower random motility
- migration in wound healing assay [2]: migrated significantly more slowly
- cell migration and invasion (transwell) [3]: inhibits cell migration and invasion
- NatD knockdown quality ([4]; KD2 vs KD1): somewhat better knockdown
- NatD mRNA, remaining relative to scrambled control [4]: 30%
- NatD protein level [4]: decreased
